{"source": "patent US20150266857A1", "about": "“NOVEL 3-INDOL SUBSTITUTED DERIVATIVES, PHARMACEUTICAL COMPOSITIONS AND METHODS FOR USE” (iTeos Therapeutics, priority 2014, published 2015)", "note": "Where a name gives a salt, the structure may show the parent alone."}
{"biological_target": "T1, human glioblastoma A172 cells, naturally expressing hTDO2 (Homo sapiens, UniProt P48775)", "T1 construct": "human glioblastoma A172 cells, naturally expressing hTDO2; endogenous in cells; host or cells: human glioblastoma A172 cells (ATCC CRL-1620)", "T1 sequence (P48775 whole entry)": "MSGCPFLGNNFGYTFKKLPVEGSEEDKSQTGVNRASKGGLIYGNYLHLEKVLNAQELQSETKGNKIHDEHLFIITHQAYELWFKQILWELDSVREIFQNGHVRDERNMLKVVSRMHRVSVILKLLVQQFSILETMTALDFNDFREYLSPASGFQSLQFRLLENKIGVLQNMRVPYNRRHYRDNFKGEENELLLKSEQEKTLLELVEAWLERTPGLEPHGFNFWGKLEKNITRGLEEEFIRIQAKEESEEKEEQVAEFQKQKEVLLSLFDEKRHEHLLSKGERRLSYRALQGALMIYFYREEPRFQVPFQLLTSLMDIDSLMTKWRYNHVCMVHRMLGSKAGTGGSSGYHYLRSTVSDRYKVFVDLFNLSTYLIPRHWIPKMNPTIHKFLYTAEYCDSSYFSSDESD", "assay": "Cellular assay for TDO2 activity, A172 cells", "assay_type": "cell-based", "conditions": "overnight incubation, kynurenine in supernatant", "experimental": "The compounds of formula I inhibit the activity of human TDO2 in cells that constitutively express TDO2, such as A172 cells. A172 is a cell line derived from human brain glioblastoma cells. The cells are available from the American Type Culture Collection (ATCC®) as CRL-1620™\nThe assay (adapted from Pilotte L et al., Proc Natl Acad Sci USA, 2012, 109(7), 2497-502) was performed in 96-well flat bottom plates seeded with human glioblastoma A172 cells, naturally expressing hTDO2 (prepared as described in Tilman et al., Mol Cancer, 2007, 17(6), 80), at a concentration of 1.25×10^4 cells/well in a final volume of 200 μL. To determine TDO, the cells were incubated overnight at 37° C. at 5% CO2 in IMDM (Invitrogen) supplemented with 2% FBS and 2% penicillin/streptomycin in the presence of the compounds of the present invention, at different concentrations.\nThe plates were then centrifuged 5 min at 1000 rpm, and 100 μL of the supernatant were collected in a conical plate, 30 uL of TCA 30% were added and a further centrifugated at 3000×g for 10 minutes. 100 μL of the supernatant were collected in a flat bottomed plate and 100 μL of 2% (w/v) 4-(dimethylamino)-benzaldehyde in acetic acid and incubated for 5 min at room temperature. Kynurenine concentrations were determined by measuring the absorbance at 480 nm. A standard curve was made with pure kynurenine. The TDO activity was measured as described above using ten serial concentrations of the compounds of the present invention. Data were fitted using the Prism™ software (GraphPad Software, Inc.) using standard parameters.", "units": {"IC50": "nM"}}
{"compound": "NC(=O)Cn1cnc2cc(-c3c[nH]c4cc(F)ccc34)ccc21", "note": "[Compound 85, 2-(5-(6-fluoro-1H-indol-3-yl)-1H-benzo[d]imidazol-1-yl)acetamide]", "IC50": 1330}
{"compound": "NCc1nc2ccc(-c3c[nH]c4cc(F)ccc34)cc2o1", "note": "[Compound 76, (6-(6-fluoro-1H-indol-3-yl)benzo[d]oxazol-2-yl)methanamine hydrochloride]", "IC50": 440}
{"compound": "Nc1nc2ccc(-c3c[nH]c4cc(F)ccc34)cc2[nH]1", "note": "[Compound 41, 6-(6-fluoro-1H-indol-3-yl)-1H-benzo[d]imidazol-2-amine]", "IC50": 1090}
{"compound": "COc1nc2ccc(-c3c[nH]c4cc(F)ccc34)cc2o1", "note": "[Compound 116, 6-(6-fluoro-1H-indol-3-yl)-2-methoxybenzo[d]oxazole]", "IC50": 372}
{"compound": "Cc1nc2cc(CO)c(-c3c[nH]c4cc(F)ccc34)cc2o1", "note": "[Compound 137, (6-(6-fluoro-1H-indol-3-yl)-2-methylbenzo[d]oxazol-5-yl)methanol]", "IC50": 30700}
{"compound": "CC(=O)N1CCC(c2nc3ccc(-c4c[nH]c5cc(F)ccc45)cc3o2)CC1", "note": "[Compound 56, 1-(4-(6-(6-fluoro-1H-indol-3-yl)benzo[d]oxazol-2-yl)piperidin-1-yl)ethanone]", "IC50": 311}
{"compound": "c1ccc2c(-c3ccc4cn[nH]c4c3)c[nH]c2c1", "note": "[Compound 108, 6-(1H-indol-3-yl)-1H-indazole]", "IC50": 599}
{"compound": "CS(=O)(=O)NCc1nc2ccc(-c3c[nH]c4cc(Cl)ccc34)cc2o1", "note": "[Compound 127, N-((6-(6-chloro-1H-indol-3-yl)benzo[d]oxazol-2-yl)methyl)methanesulfonamide]", "IC50": 3780}
{"compound": "C[C@@H]1CN[C@@H](C)CN1CCc1nc2ccc(-c3c[nH]c4cc(F)ccc34)cc2o1", "note": "(relative stereo) [Compound 141, 2-(2-(trans-2,5-dimethylpiperazin-1-yl)ethyl)-6-(6-fluoro-1H-indol-3-yl)benzo[d]oxazole]", "IC50": 340}
{"compound": "O=C(O)C1CN(CCc2nc3ccc(-c4c[nH]c5cc(F)ccc45)cc3o2)CCN1", "note": "(stereo not shown) [Compound 145, 4-(2-(6-(6-fluoro-1H-indol-3-yl)benzo[d]oxazol-2-yl)ethyl)piperazine-2-carboxylic acid]", "IC50": 26000}
{"compound": "Fc1ccc2c(-c3ccc4sccc4c3)c[nH]c2c1", "note": "[Compound 72, 3-(benzo[b]thiophen-5-yl)-6-fluoro-1H-indole]", "IC50": 442}
{"compound": "NC(=O)CCn1c(=O)oc2ccc(-c3c[nH]c4cc(F)ccc34)cc21", "note": "[Compound 71]", "IC50": 3530}
{"compound": "NC(=O)CCn1c(=O)oc2cc(-c3c[nH]c4cc(F)ccc34)ccc21", "note": "[Compound 67, 3-(6-(6-fluoro-1H-indol-3-yl)-2-oxobenzo[d]oxazol-3(2H)-yl)propanamide]", "IC50": 2520}
{"compound": "OC1CCN(CCc2nc3ccc(-c4c[nH]c5cc(F)ccc45)cc3o2)CC1", "note": "[Compound 140, 1-(2-(6-(6-fluoro-1H-indol-3-yl)benzo[d]oxazol-2-yl)ethyl)piperidin-4-ol]", "IC50": 447}
{"compound": "CN1CCN(C(=O)CCn2ncc3cc(-c4c[nH]c5cc(F)ccc45)ccc32)CC1", "note": "[Compound 87, 3-(5-(6-fluoro-1H-indol-3-yl)-1H-indazol-1-yl)-1-(4-methylpiperazin-1-yl)propan-1-one]", "IC50": 298}
{"compound": "CC(=O)NCc1nc2cc(-c3c[nH]c4cc(F)ccc34)ccc2o1", "note": "[Compound 73, N-((5-(6-fluoro-1H-indol-3-yl)benzo[d]oxazol-2-yl)methyl)acetamide]", "IC50": 363}
{"compound": "O=C(CCn1ncc2cc(-c3c[nH]c4cc(F)ccc34)ccc21)N1CCNCC1", "note": "[Compound 91, 3-(5-(6-fluoro-1H-indol-3-yl)-1H-indazol-1-yl)-1-(piperazin-1-yl)propan-1-one]", "IC50": 213}
{"compound": "NC(=O)Cn1c(=O)oc2ccc(-c3c[nH]c4cc(F)ccc34)cc21", "note": "[Compound 69, 2-(5-(6-fluoro-1H-indol-3-yl)-2-oxobenzo[d]oxazol-3(2H)-yl)acetamide]", "IC50": 3280}
{"compound": "CS(=O)(=O)N1CCC(Cc2nc3ccc(-c4c[nH]c5cc(F)ccc45)cc3o2)CC1", "note": "[Compound 119, 6-(6-fluoro-1H-indol-3-yl)-2-((1-(methylsulfonyl)piperidin-4-yl)methyl)benzo[d]oxazole]", "IC50": 1020}
